Values of other authors, collected in patent US6511813B1, “Elongation factor P (EFP) and assays and antimicrobial treatments related to the same” (Pharmacia & Upjohn Company, priority 1999, dated 2003).

Experiments:
peptidyltransferase [1] = test system: peptidyltransferase
[2] = test system: fMet-tRNAfMet/ribosome translation complex
peptidyltransferase [3] = test system: peptidyltransferase; remark: listed apart in the source

Compound	effect on efp reaction (efp)	effect on formation of the fMet-tRNAfMet/ribosome translation complex [2]	effect on the peptide-bond synthesis which occurs in the absence of efp (peptidyltransferase [3])	other results
CC[C@H]1OC(=O)[C@H](C)[C@@H](O[C@H]2C[C@@](C)(OC)[C@@H](O)[C@H](C)O2)[C@H](C)[C@@H](O[C@@H]2O[C@H](C)C[C@H](N(C)C)[C@H]2O)[C@](C)(O)C[C@@H](C)C(=O)[C@H](C)[C@@H](O)[C@]1(C)O [Erythromycin]	–	–	–	effect on the efp reaction (efp; at 5×10^−5): no apparent effect
CCC[C@@H]1C[C@@H](C(=O)N[C@@H]([C@H]2O[C@H](SC)[C@H](O)[C@@H](O)[C@H]2O)[C@@H](C)O)N(C)C1 [Lincomycin]	nullifies the ability of efp to stimulate synthesis of peptide bonds	–	–	effect on the puromycin reaction (peptidyltransferase [1]): inhibits; effect on the synthesis of polyphenylalanine (ribosome): marginal effects
[H]/N=C(/N)N[C@H]1[C@H](O)[C@@H](O)[C@H](O[C@@H]2O[C@@H](C)[C@](O)(C=O)[C@H]2O[C@@H]2O[C@@H](CO)[C@H](O)[C@@H](O)[C@@H]2NC)[C@@H](N/C(N)=N\[H])[C@@H]1O [Streptomycin]	–	–	–	inhibition of the efp-mediated reaction (efp; at 2×10^−5 M): potent inhibitor
C=C(NC(=O)C(=C)NC(=O)c1csc(C2=N[C@@H]3c4csc(n4)[C@H]4NC(=O)c5csc(n5)[C@H]([C@](C)(O)[C@@H](C)O)NC(=O)[C@H]5CSC(=N5)/C(=C/C)NC(=O)[C@H]([C@@H](C)O)NC(=O)c5csc(n5)[C@]3(CC2)NC(=O)[C@H](C)NC(=O)C(=C)NC(=O)[C@H](C)NC(=O)[C@H]([C@@H](C)CC)N[C@@H]2C=Cc3c([C@H](C)O)cc(nc3[C@H]2O)C(=O)O[C@@H]4C)n1)C(N)=O [thiostrepton]	inhibit only about 20% or have no effect	no effect	no effect	–
neomycin	inhibit only about 20% or have no effect	no effect	no effect	–
